This is an account of results in patent publication US11331369B2, “Endoparasitic depsipeptides” (Zoetis Services LLC, priority 2017, dated 2022).

This assay concerns microfilariae of Dirofilaria immitis. Put plainly: Dirofilaria immitis, Microfilaria (DiMF) In vitro Assay. The following applies: 72 h, read-out: DiMF Minimum Effective Dose (MED), approximately 72 hours incubation, microfilariae assessed for survival or paralysis. The format is cell-based.

Take `CC(C)C[C@H]1C(=O)O[C@H](Cc2ccc(Cn3cc(N4CCCCC4)cn3)cc2)C(=O)N(C)[C@@H](CC(C)C)C(=O)O[C@H](C)C(=O)N(C)[C@@H](CC(C)C)C(=O)O[C@H](Cc2ccc(Cn3cc(N4CCCCC4)cn3)cc2)C(=O)N(C)[C@@H](CC(C)C)C(=O)O[C@H](C)C(=O)N1C` [Example 1b-183, (3S,6R,9S,12R,15S,18R,21S,24R)-3,9,15,21-tetraisobutyl-4,6,10,16,18,22-hexamethyl-12,24-bis(4-((4-(piperidin-1-yl)-1H-pyrazol-1-yl)methyl)benzyl)-1,7,13,19-tetraoxa-4,10,16,22-tetraazacyclotetracosan-2,5,8,11,14,17,20,23-octaone]: the minimal effective concentration lay within 0.01 to 0.1 µM.
Take `Cc1nn(Cc2ccc(C[C@H]3OC(=O)[C@H](CC(C)C)N(C)C(=O)[C@@H](C)OC(=O)[C@H](CC(C)C)N(C)C(=O)[C@@H](Cc4ccccc4)OC(=O)[C@H](CC(C)C)N(C)C(=O)[C@@H](C)OC(=O)[C@H](CC(C)C)N(C)C3=O)cc2)c(C)c1Cl` [Example 2-50, (3S,6R,9S,12R,15S,18R,21S,24R)-6-benzyl-18-(4-((4-chloro-3,5-dimethyl-1H-pyrazol-1-yl)methyl)benzyl)-3,9,15,21-tetraisobutyl-4,10,12,16,22,24-hexamethyl-1,7,13,19-tetraoxa-4,10,16,22-tetraazacyclotetracosan-2,5,8,11,14,17,20,23-octaone]: the minimal effective concentration is 0.01 to 0.1 µM.
For `CCOc1cc(C2CC2)nn1Cc1ccc(C[C@H]2OC(=O)[C@H](CC(C)C)N(C)C(=O)[C@@H](C)OC(=O)[C@H](CC(C)C)N(C)C(=O)[C@@H](Cc3ccc(Cn4nc(C5CC5)cc4OCC)cc3)OC(=O)[C@H](CC(C)C)N(C)C(=O)[C@@H](C)OC(=O)[C@H](CC(C)C)N(C)C2=O)cc1` [Example 1b-170, (3S,6R,9S,12R,15S,18R,21S,24R)-6,18-bis(4-((3-cyclopropyl-5-ethoxy-1H-pyrazol-1-yl)methyl)benzyl)-3,9,15,21-tetraisobutyl-4,10,12,16,22,24-hexamethyl-1,7,13,19-tetraoxa-4,10,16,22-tetraazacyclotetracosan-2,5,8,11,14,17,20,23-octaone], the minimal effective concentration was 0.01 to 0.1 µM.
For `CC(C)C[C@H]1C(=O)O[C@H](Cc2ccc(Cn3cc4c(n3)CNC4)cc2)C(=O)N(C)[C@@H](CC(C)C)C(=O)O[C@H](C)C(=O)N(C)[C@@H](CC(C)C)C(=O)O[C@H](Cc2ccccc2)C(=O)N(C)[C@@H](CC(C)C)C(=O)O[C@H](C)C(=O)N1C` [Example 10-27, (3S,6R,9S,12R,15S,18R,21S,24R)-6-benzyl-18-(4-((5,6-dihydropyrrolo[3,4-c]pyrazol-2(4H)-yl)methyl)benzyl)-3,9,15,21-tetraisobutyl-4,10,12,16,22,24-hexamethyl-1,7,13,19-tetraoxa-4,10,16,22-tetraazacyclotetracosan-2,5,8,11,14,17,20,23-octaone], the minimal effective concentration was 0.01 to 0.1 µM.
For `CC(C)C[C@H]1C(=O)O[C@H](Cc2ccc(Cn3cc(-c4cn(C)nn4)cn3)cc2)C(=O)N(C)[C@@H](CC(C)C)C(=O)O[C@H](C)C(=O)N(C)[C@@H](CC(C)C)C(=O)O[C@H](Cc2ccccc2)C(=O)N(C)[C@@H](CC(C)C)C(=O)O[C@H](C)C(=O)N1C` [Example 2-84, (3S,6R,9S,12R,15S,18R,21S,24R)-6-benzyl-3,9,15,21-tetraisobutyl-4,10,12,16,22,24-hexamethyl-18-(4-((4-(1-methyl-1H-1,2,3-triazol-4-yl)-1H-pyrazol-1-yl)methyl)benzyl)-1,7,13,19-tetraoxa-4,10,16,22-tetraazacyclotetracosan-2,5,8,11,14,17,20,23-octaone], the minimal effective concentration lay within 0.01 to 0.1 µM.
On to `CC(C)C[C@H]1C(=O)O[C@H](Cc2ccc(Cn3ccnc3C(C)(C)C)cc2)C(=O)N(C)[C@@H](CC(C)C)C(=O)O[C@H](C)C(=O)N(C)[C@@H](CC(C)C)C(=O)O[C@H](Cc2ccc(Cn3ccnc3C(C)(C)C)cc2)C(=O)N(C)[C@@H](CC(C)C)C(=O)O[C@H](C)C(=O)N1C` [Example 6-6, (3S,6R,9S,12R,15S,18R,21S,24R)-6,18-bis[[4-[(2-tert-butylimidazol-1-yl)methyl]phenyl]methyl]-3,9,15,21-tetraisobutyl-4,10,12,16,22,24-hexamethyl-1,7,13,19-tetraoxa-4,10,16,22-tetrazacyclotetracosane-2,5,8,11,14,17,20,23-octaone], for which the minimal effective concentration was in the range of 0.01 to 0.1 µM.
For `CC(C)C[C@H]1C(=O)O[C@H](Cc2ccc(Cn3cc(S(=O)(=O)N4CCCC4)cn3)cc2)C(=O)N(C)[C@@H](CC(C)C)C(=O)O[C@H](C)C(=O)N(C)[C@@H](CC(C)C)C(=O)O[C@H](Cc2ccc(Cn3cc(S(=O)(=O)N4CCCC4)cn3)cc2)C(=O)N(C)[C@@H](CC(C)C)C(=O)O[C@H](C)C(=O)N1C` [Example 1b-54, (3S,6R,9S,12R,15S,18R,21S,24R)-3,9,15,21-tetraisobutyl-4,6,10,16,18,22-hexamethyl-12,24-bis(4-((4-(pyrrolidin-1-ylsulfonyl)-1H-pyrazol-1-yl)methyl)benzyl)-1,7,13,19-tetraoxa-4,10,16,22-tetraazacyclotetracosan-2,5,8,11,14,17,20,23-octaone], the minimal effective concentration is 0.01 to 0.1 µM.
With `Cc1cnn(Cc2ccc(C[C@H]3OC(=O)[C@H](CC(C)C)N(C)C(=O)[C@@H](C)OC(=O)[C@H](CC(C)C)N(C)C(=O)[C@@H](Cc4ccc(Cn5ccc(C(F)(F)F)n5)cc4)OC(=O)[C@H](CC(C)C)N(C)C(=O)[C@@H](C)OC(=O)[C@H](CC(C)C)N(C)C3=O)cc2)c1` [Example 1a-29, (3S,6R,9S,12R,15S,18R,21S,24R)-3,9,15,21-tetraisobutyl-4,6,10,16,18,22-hexamethyl-12-(4-((4-methyl-1H-pyrazol-1-yl)methyl)benzyl)-24-(4-((3-(trifluoromethyl)-1H-pyrazol-1-yl)methyl)benzyl)-1,7,13,19-tetraoxa-4,10,16,22-tetraazacyclotetracosan-2,5,8,11,14,17,20,23-octaone], the minimal effective concentration lay in the range of 0.01 to 0.1 µM.
For the compound `CC(C)C[C@H]1C(=O)O[C@H](Cc2ccc(Cn3nccc3-c3ccccc3)cc2)C(=O)N(C)[C@@H](CC(C)C)C(=O)O[C@H](C)C(=O)N(C)[C@@H](CC(C)C)C(=O)O[C@H](Cc2ccccc2)C(=O)N(C)[C@@H](CC(C)C)C(=O)O[C@H](C)C(=O)N1C` [Example 2-67, (3S,6R,9S,12R,15S,18R,21S,24R)-6-benzyl-3,9,15,21-tetraisobutyl-4,10,12,16,22,24-hexamethyl-18-(4-((5-phenyl-1H-pyrazol-1-yl)methyl)benzyl)-1,7,13,19-tetraoxa-4,10,16,22-tetraazacyclotetracosan-2,5,8,11,14,17,20,23-octaone], the minimal effective concentration was in the range of 0.01 to 0.1 µM.
As for `CC(C)C[C@H]1C(=O)O[C@H](Cc2ccc(CN3CCC(F)(F)CC3)cc2)C(=O)N(C)[C@@H](CC(C)C)C(=O)O[C@H](C)C(=O)N(C)[C@@H](CC(C)C)C(=O)O[C@H](Cc2ccc(CN3CCC(F)(F)CC3)cc2)C(=O)N(C)[C@@H](CC(C)C)C(=O)O[C@H](C)C(=O)N1C` [Example 9-4, (3S,6R,9S,12R,15S,18R,21S,24R)-6,18-bis(4-((4,4-difluoropiperidin-1-yl)methyl)benzyl)-3,9,15,21-tetraisobutyl-4,10,12,16,22,24-hexamethyl-1,7,13,19-tetraoxa-4,10,16,22-tetraazacyclotetracosan-2,5,8,11,14,17,20,23-octaone], the minimal effective concentration lay within 0.01 to 0.1 µM.
With `Cc1nn(Cc2ccc(C[C@H]3OC(=O)[C@H](CC(C)C)N(C)C(=O)[C@@H](C)OC(=O)[C@H](CC(C)C)N(C)C(=O)[C@@H](Cc4ccccc4)OC(=O)[C@H](CC(C)C)N(C)C(=O)[C@@H](C)OC(=O)[C@H](CC(C)C)N(C)C3=O)cc2)c(C)c1S(=O)(=O)N1CCCCC1` [Example 2-60, (3S,6R,9S,12R,15S,18R,21S,24R)-6-benzyl-18-(4-((3,5-dimethyl-4-(piperidin-1-ylsulfonyl)-1H-pyrazol-1-yl)methyl)benzyl)-3,9,15,21-tetraisobutyl-4,10,12,16,22,24-hexamethyl-1,7,13,19-tetraoxa-4,10,16,22-tetraazacyclotetracosan-2,5,8,11,14,17,20,23-octaone], the minimal effective concentration fell in the range of 0.01 to 0.1 µM.
Take `CC(C)C[C@H]1C(=O)O[C@H](Cc2ccc(Cn3ccnc3I)cc2)C(=O)N(C)[C@@H](CC(C)C)C(=O)O[C@H](C)C(=O)N(C)[C@@H](CC(C)C)C(=O)O[C@H](Cc2ccc(Cn3ccnc3I)cc2)C(=O)N(C)[C@@H](CC(C)C)C(=O)O[C@H](C)C(=O)N1C` [Example 6-10, (3S,6R,9S,12R,15S,18R,21S,24R)-6,18-bis(4-((2-iodo-1H-imidazol-1-yl)methyl)benzyl)-3,9,15,21-tetraisobutyl-4,10,12,16,22,24-hexamethyl-1,7,13,19-tetraoxa-4,10,16,22-tetraazacyclotetracosan-2,5,8,11,14,17,20,23-octaone]: the minimal effective concentration was in the range of 0.01 to 0.1 µM.
For the compound `CC(C)C[C@H]1C(=O)O[C@H](Cc2ccc(Cn3cc4c(n3)CN(C)C4)cc2)C(=O)N(C)[C@@H](CC(C)C)C(=O)O[C@H](C)C(=O)N(C)[C@@H](CC(C)C)C(=O)O[C@H](Cc2ccccc2)C(=O)N(C)[C@@H](CC(C)C)C(=O)O[C@H](C)C(=O)N1C` [Example 10-32, (3S,6R,9S,12R,15S,18R,21S,24R)-6-benzyl-3,9,15,21-tetraisobutyl-4,10,12,16,22,24-hexamethyl-18-(4-((5-methyl-5,6-dihydropyrrolo[3,4-c]pyrazol-2(4H)-yl)methyl)benzyl)-1,7,13,19-tetraoxa-4,10,16,22-tetraazacyclotetracosan-2,5,8,11,14,17,20,23-octaone], the minimal effective concentration lay in the range of 0.01 to 0.1 µM.
As for `CC(C)C[C@H]1C(=O)O[C@H](Cc2ccc(Cn3cc(-c4cnccn4)cn3)cc2)C(=O)N(C)[C@@H](CC(C)C)C(=O)O[C@H](C)C(=O)N(C)[C@@H](CC(C)C)C(=O)O[C@H](Cc2ccc(Cn3cc(-c4cnccn4)cn3)cc2)C(=O)N(C)[C@@H](CC(C)C)C(=O)O[C@H](C)C(=O)N1C` [Example 1b-87, (3S,6R,9S,12R,15S,18R,21S,24R)-3,9,15,21-tetraisobutyl-4,6,10,16,18,22-hexamethyl-12,24-bis(4-((4-(pyrazin-2-yl)-1H-pyrazol-1-yl)methyl)benzyl)-1,7,13,19-tetraoxa-4,10,16,22-tetraazacyclotetracosan-2,5,8,11,14,17,20,23-octaone], the minimal effective concentration was in the range of 0.01 to 0.1 µM.
